Source: patent US20020018762A1, “Utilizing camptotheca products for termite control” (priority 2000, published 2002)
Read-outs that look alike come from different tables or passages of the source.

Columns and labels:
subterranean termites = settings: for Damage to the treated wood sample: 4-week observation period; for Termites dead within 24 hours: of 30 termites
Experimental: 180 active subterranean termites, were grown in 9 cm Petri dishes in the dark with 30 termites in each of six dishes. In each dish, a filter paper is on the bottom to retain moisture along with a piece of treated southern yellow pine wood (relatively fresh, 3×3×7 cm). The wood was treated with one of the following natural products isolated from Camptotheca acuminata or water (as control) for 30 minutes and then dried: (1) pure CPT (>97%) (3.8 mg/l=3.8 ppm, with water as the solvent); (2) OHCPT (10-hydroxycamptothecin: 3.8 mg/l=3.8 ppm, with water as the solvent); (3) raw extraction of CPTs from young tissues (alkaloids: 8.75 mg/l=8.75 ppm, with 95% ethanol as the solvent); (4) flavonoids (13.9 mg/l=13.9 ppm with water as the solvent); (5) ethanol (95%); and (6) water (control). The termites and wood condition were checked and recorded every hour for the first 12 hours and every 8 hrs thereafter. The observation period was 4 weeks (May 20 to Jun. 17, 2000).

[1] = system: Masson pine caterpillar (Dendrolimus punctatus); settings: cited from earlier work
[2] = Water soak of Camptotheca stakes, HPLC analysis of extracted flavonoids and CPTs (Example 5, FIG. 3); assay type: physicochemical
Excerpt: For example, the Camptotheca wood containing CPTs (CPT concentrations: 30-100 ppm) after extraction of flavonoids may be used in preparation of termite-resistant wood products such as composition boards, particleboards, and fiberboards. FIG. 3 illustrates the effect of a water soak on the content of flavonoids and CPT over time.
In July 2000, we conducted an experiment with several pieces of Camptotheca stakes (c. 10 cm in length and 3 cm in diameter) soaked in nanopure water. A month later, water samples were collected from the water with stakes and only water (as control) for HPLC analysis.

[3] = Effect of the particleboard process on CPT content (FIG. 4); assay type: physicochemical; settings: heat and pressure pressing
Excerpt: Particleboard is an engineered wood product used as core material in the construction of home and office furniture, shelving and kitchen cabinets, as well as commercial and institutional fixtures. The major source for the manufacture of particleboard is southern yellow pine. Termite-resistant particleboard is not available. The present invention provides a method of preparing termite-resistant particleboards by including 30-70% Camptotheca wood in combination with currently-existing particleboard materials, e.g., pine, in a process as shown in Example 6. […] Similarly, the CPT content 260 in the raw material from bark and wood 290 and the particleboard from bark and wood 300 remained the same after the particleboard process.
Termite-resistant particleboards were prepared in accordance with the invention, using southern yellow pine mixed with natural Camptotheca acuminata wood after extraction of flavonoids. Six 5-year-old Camptotheca acuminata trees were harvested. The wood materials were classified into: trunk wood without bark, trunk wood with bark, branch wood without bark, and branch wood with bark. The sample materials were chipped and milled into uniformly small particles (20-30 mesh) and soaked in water for a week. The southern yellow pine wood was prepared in the same size as the control sample. […]

[4] = system: termites (including drywood termite, Incistermes snyderi); assay: Field test of termite resistance of sprayed southern yellow pine boards (Example 3); assay type: in vivo
Experimental: There were 4 treatments including 3 pieces of sound southern yellow pine boards (30×9×4 cm) each. The wood was treated with either a natural product isolated from Camptotheca acuminata or water as a control. […] The boards were randomly placed on the ground where no termites were observed. The wood condition and termite activity were checked and recorded every week beginning May 20, 2000.

[5] = system: subterranean termites (Reticultitermes virginicus)
Experimental: 60 active subterranean termites (Reticultitermes virginicus) were grown in 9 cm Petri dishes in dark with 15 termites (10 soldiers and 5 workers) in each of four dishes. In each dish, a filter paper is placed on the bottom of the dish to retain moisture along with a piece of treated southern yellow pine wood (decayed, 3×3×7 cm). The wood was treated with one of the following natural products isolated from Camptotheca acuminata or water (as control) for 30 minutes and then dried: (1) pure CPT (>97%) (camptothecin, 3.8 mg/l=3.8 ppm, with water as the solvent); (2) raw extraction of CPTs from young tissues (alkaloids: 8.75 mg/l=8.75 ppm, with 95% ethanol as the solvent); (3) flavonoids (13.9 mg/l=13.9 ppm with water as the solvent); and (4) water (control). The termites and wood condition were checked and recorded every hour for the first 12 hours and every 8 hrs thereafter. The observation period was 4 weeks (May 17 to Jun. 14, 2000).

[6] = 30 termites per dish, CPT 3.8 ppm, OHCPT 3.8 ppm, raw CPTs 8.75 ppm, flavonoids 13.9 ppm, ethanol 95%
[7] = 15 termites per dish, wood treated 30 min, CPT 3.8 ppm, raw CPTs 8.75 ppm, flavonoids 13.9 ppm

CC[C@@]1(O)C(=O)OCc2c1cc1n(c2=O)Cc2cc3cc(O)ccc3nc2-1 [OHCPT, 10-hydroxycamptothecin]
Damage to the treated wood sample (subterranean termites): no obvious damage
Time within which termite mortality was 100% (subterranean termites; 30 termites per dish): ≤ 6 days
Mortality within 1 week (subterranean termites; [6]): 100%
Mortality within 4 weeks (subterranean termites; [6]): 100%
Termites dead within 24 hours (subterranean termites): 16

CCO [Ethanol, ethanol]
Damage to the treated wood sample (subterranean termites): No wood damage
Mortality within 1 week (subterranean termites; in vivo): 100%
Mortality within 4 weeks (subterranean termites; in vivo): 100%

CC[C@@]1(O)C(=O)OCc2c1cc1n(c2=O)Cc2cc3ccccc3nc2-1 [CPT, camptothecin]
Damage to the treated wood sample (subterranean termites): no obvious damage
Time within which termite mortality was 100% (subterranean termites; 30 termites per dish): ≤ 5 days
Mortality within 1 week (subterranean termites; [6]): 100%
Mortality within 4 weeks (subterranean termites; [6]): 100%
Time after which all termites became inactive (subterranean termites; CPT 3.8 ppm): 10 h
Termite behaviour toward the treated wood (repellency / attraction) (subterranean termites; in vivo): avoided getting close to the wood after the initial contract
Termites dead within 24 hours (subterranean termites): 12
Hatchability of eggs ([1]; after treatment with 0.05% CPT): decreased
Mortality of insect larvae, pupae, and adults ([1]; after treatment with CPT): increased
Extraction by water soak at day 7 (FIG. 3) ([2]; day 7): not extracted
Extraction by water soak at day 30 (FIG. 3) ([2]; day 30): remains water insoluble
Effect of particleboard process on CPT content [3]: no significant effect
Termite damage of treated wood (based on weight) ([4]; field, three months, CPT 380 ppm, raw CPTs 8.75 ppm, flavonoids 13.9 ppm): no termite damage
Termite damage of treated southern yellow pine lumber in the field ([4]; within 3 months): damage-free
Damage to the treated wood sample ([5]; 4-week observation period): no obvious damage
Time within which termite mortality was 100% ([5]; 15 termites per dish, CPT 3.8 ppm, raw CPTs 8.75 ppm): ≤ 4 days
Mortality within 1 week [5, 7]: 100%
Mortality within 4 weeks [5, 7]: 100%
Mortality within 1 week ([5]; 15 termites per dish, wood treated 30 min, CPT 3.8 ppm, raw CPTs 8.75 ppm, flavonoids 13.9 ppm, listed as purified CPT): all termites dead
Time after which termites became inactive ([5]; CPT 3.8 ppm): 6 h
Termites dead within 36 hours ([5]; of total 15 termites, CPT 3.8 ppm): Six
Termite damage of treated pine stakes within a week ([5]; summary of Examples 1 and 2): damage free
